# Reference: ChEMBL document CHEMBL3612056, “Mechanism studies on anti-HepG2 cell proliferation of phenanthroline derivatives as G-quadruplex DNA stabilizers” (Bioorg Med Chem Lett, 2015)
# pIC50: −log10 of the molar value. Activity calls are given as the source filed them. The rule behind the calls is not given here.
# Legend:
# [1] = tested on: HepG2; test: Reduction in Sp1 protein expression in human HepG2 cells at 8 and 12 uM incubated for 2 days by Western blot method; type: functional, cell-based
# [2] = tested on: HepG2; test: Induction of apoptosis in human HepG2 cells assessed as early apoptotic cells levels at 12 uM incubated for 2 days by Annexin-V-FITC and propidium iodide staining based flow cytometry (reference value: 0.3%); type: functional
# [3] = tested on: HepG2; test: Induction of apoptosis in human HepG2 cells assessed as necrotic cells levels at 12 uM incubated for 2 days by Annexin-V-FITC and propidium iodide staining based flow cytometry (reference value: 1.4%); type: functional
# [4] = tested on: HepG2; test: Induction of cell cycle arrest in human HepG2 cells assessed as increase in accumulation at G0/G1 phase incubated for 2 days by propidium iodide staining based flow cytometry method; type: functional
# [5] = tested on: HepG2; test: Reduction in TERT protein expression in human HepG2 cells at 0.5 to 20 uM incubated for 2 days by Western blot method; type: functional, cell-based
# [6] = tested on: MCF7; test: Cytotoxicity against human MCF7 cells assessed as reduction in cell viability incubated for 72 hrs by MTT assay; type: functional, cell-based; conditions: MCF7, 72 h
# [7] = tested on: HepG2; test: Induction of apoptosis in human HepG2 cells assessed as late apoptotic cells levels at 8 uM incubated for 2 days by Annexin-V-FITC and propidium iodide staining based flow cytometry (reference value: 0.5%); type: functional
# [8] = tested on: HepG2; test: Induction of apoptosis in human HepG2 cells assessed as viable cells levels at 12 uM incubated for 3 days by Annexin-V-FITC and propidium iodide staining based flow cytometry (reference value: 89.3%); type: functional
# [9] = tested on: HepG2; test: Increase in p53 protein expression in human HepG2 cells at 8 and 12 uM incubated for 2 days by Western blot method; type: functional, cell-based
# [10] = tested on: HepG2; test: Induction of apoptosis in human HepG2 cells assessed as early apoptotic cells levels at 12 uM incubated for 3 days by Annexin-V-FITC and propidium iodide staining based flow cytometry (reference value: 2.9%); type: functional
# [11] = tested on: HepG2; test: Induction of apoptosis in human HepG2 cells assessed as necrotic cells levels at 8 uM incubated for 2 days by Annexin-V-FITC and propidium iodide staining based flow cytometry (reference value: 1.4%); type: functional
# [12] = tested on: HepG2; test: Induction of cell cycle arrest in human HepG2 cells assessed as accumulation at G0/G1 phase at 4 uM incubated for 2 days by propidium iodide staining based flow cytometry method (reference value: 51.56%); type: functional
# [13] = tested on: HepG2; test: Induction of cell cycle arrest in human HepG2 cells assessed as accumulation at G2/M phase at 8 uM incubated for 2 days by propidium iodide staining based flow cytometry method (reference value: 21.39%); type: functional
# [14] = tested on: HepG2; test: Induction of apoptosis in human HepG2 cells assessed as viable cells levels at 8 uM incubated for 2 days by Annexin-V-FITC and propidium iodide staining based flow cytometry (reference value: 97.9%); type: functional
# [15] = tested on: HepG2; test: Induction of cell cycle arrest in human HepG2 cells assessed as accumulation at S phase at 8 uM incubated for 2 days by propidium iodide staining based flow cytometry method (reference value: 27.05%); type: functional
# [16] = tested on: HepG2; test: Induction of apoptosis in human HepG2 cells assessed as late apoptotic cells levels at 12 uM incubated for 3 days by Annexin-V-FITC and propidium iodide staining based flow cytometry (reference value: 3.9%); type: functional
# [17] = tested on: HepG2; test: Induction of apoptosis in human HepG2 cells assessed as early apoptotic cells levels at 8 uM incubated for 3 days by Annexin-V-FITC and propidium iodide staining based flow cytometry (reference value: 2.9%); type: functional
# [18] = tested on: DNA; test: Stabilization of human telomere promoter G-quadruplex DNA (unknown origin); type: nucleic-acid assay
# [19] = tested on: HepG2; test: Induction of apoptosis in human HepG2 cells assessed as viable cells levels at 8 uM incubated for 3 days by Annexin-V-FITC and propidium iodide staining based flow cytometry (reference value: 89.3%); type: functional
# [20] = tested on: HepG2; test: Induction of apoptosis in human HepG2 cells assessed as necrotic cells levels at 12 uM incubated for 3 days by Annexin-V-FITC and propidium iodide staining based flow cytometry (reference value: 3.8%); type: functional
# [21] = tested on: HepG2; test: Induction of cell cycle arrest in human HepG2 cells assessed as reduction in accumulation at G2/M phase incubated for 2 days by propidium iodide staining based flow cytometry method; type: functional
# [22] = tested on: HepG2; test: Induction of cell cycle arrest in human HepG2 cells assessed as accumulation at G2/M phase at 4 uM incubated for 2 days by propidium iodide staining based flow cytometry method (reference value: 21.39%); type: functional
# [23] = tested on: HeLa; test: Cytotoxicity against human HeLa cells assessed as reduction in cell viability incubated for 72 hrs by MTT assay; type: functional, cell-based
# [24] = tested on: HepG2; test: Inhibition of cell proliferation of human HepG2 cells at 0.5 uM incubated for 12 days by long-term cell growth inhibition assay; type: functional, cell-based
# [25] = tested on: HepG2; test: Induction of apoptosis in human HepG2 cells assessed as necrotic cells levels at 8 uM incubated for 3 days by Annexin-V-FITC and propidium iodide staining based flow cytometry (reference value: 3.8%); type: functional
# [26] = tested on: HepG2; test: Reduction in cyclin D1/CDK4 protein expression in human HepG2 cells incubated for 2 days by Western blot method; type: functional, cell-based
# [27] = tested on: HepG2; test: Induction of apoptosis in human HepG2 cells assessed as viable cells levels at 12 uM incubated for 2 days by Annexin-V-FITC and propidium iodide staining based flow cytometry (reference value: 97.9%); type: functional
# [28] = tested on: HepG2; test: Induction of cell cycle arrest in human HepG2 cells assessed as reduction in accumulation at S phase incubated for 2 days by propidium iodide staining based flow cytometry method; type: functional
# [29] = tested on: HepG2; test: Effect on TERT gene expression in human HepG2 cells at 2 to 16 uM incubated for 2 days by RT-PCR method; type: functional, cell-based
# [30] = tested on: HepG2; test: Reduction in c-Myc gene expression in human HepG2 cells at 2 to 16 uM incubated for 2 days by RT-PCR method; type: functional, cell-based
# [31] = tested on: HepG2; test: Reduction in c-Myc protein expression in human HepG2 cells at 0.5 to 20 uM incubated for 2 days by Western blot method; type: functional, cell-based
# [32] = tested on: HepG2; test: Induction of cell cycle arrest in human HepG2 cells assessed as accumulation at G0/G1 phase at 8 uM incubated for 2 days by propidium iodide staining based flow cytometry method (reference value: 51.56%); type: functional
# [33] = tested on: HepG2; test: Induction of apoptosis in human HepG2 cells assessed as late apoptotic cells levels at 8 uM incubated for 3 days by Annexin-V-FITC and propidium iodide staining based flow cytometry (reference value: 3.9%); type: functional
# [34] = tested on: HepG2; test: Induction of apoptosis in human HepG2 cells assessed as late apoptotic cells levels at 12 uM incubated for 2 days by Annexin-V-FITC and propidium iodide staining based flow cytometry (reference value: 0.5%); type: functional
# [35] = tested on: HepG2; test: Reduction in cyclin B1/CDK1 protein expression in human HepG2 cells incubated for 2 days by Western blot method; type: functional, cell-based
# [36] = tested on: HepG2; test: Cytotoxicity against human HepG2 cells assessed as reduction in cell viability incubated for 72 hrs by MTT assay; type: functional, cell-based; conditions: HepG2, 72 h
# [37] = Stabilization of c-myc promoter G-quadruplex DNA (unknown origin)
# [38] = tested on: HepG2; test: Inhibition of telomeric DNA elongation in human HepG2 cells at 0.5 uM incubated for 17 days by telomere restriction fragment length assay; type: functional, cell-based
# [39] = tested on: HepG2; test: Induction of apoptosis in human HepG2 cells assessed as early apoptotic cells levels at 8 uM incubated for 2 days by Annexin-V-FITC and propidium iodide staining based flow cytometry (reference value: 0.3%); type: functional
# [40] = tested on: HepG2; test: Induction of cell cycle arrest in human HepG2 cells assessed as accumulation at S phase at 4 uM incubated for 2 days by propidium iodide staining based flow cytometry method (reference value: 27.05%); type: functional
# [41] = tested on: HepG2; test: Induction of apoptosis in human HepG2 cells by Annexin-V-FITC and propidium iodide staining based flow cytometry; type: functional, cell-based
# [42] = tested on: HepG2; test: Induction of cell cycle arrest in human HepG2 cells assessed as accumulation at S phase at 4 uM incubated for 2 days by propidium iodide staining based flow cytometry method (reference value: 24.65%); type: functional
# [43] = tested on: HepG2; test: Induction of cell cycle arrest in human HepG2 cells assessed as accumulation at S phase at 8 uM incubated for 2 days by propidium iodide staining based flow cytometry method (reference value: 24.65%); type: functional
# [44] = tested on: HepG2; test: Induction of cell cycle arrest in human HepG2 cells assessed as accumulation at G0/G1 phase at 8 uM incubated for 2 days by propidium iodide staining based flow cytometry method (reference value: 64.6%); type: functional
# [45] = tested on: HepG2; test: Reduction in TERT protein expression in human HepG2 cells at 2 to 12 uM incubated for 2 days by Western blot method; type: functional, cell-based
# [46] = tested on: HepG2; test: Induction of cell cycle arrest in human HepG2 cells assessed as accumulation at G0/G1 phase at 4 uM incubated for 2 days by propidium iodide staining based flow cytometry method (reference value: 64.6%); type: functional
# [47] = tested on: HepG2; test: Induction of cell cycle arrest in human HepG2 cells assessed as accumulation at G2/M phase at 8 uM incubated for 2 days by propidium iodide staining based flow cytometry method (reference value: 10.75%); type: functional
# [48] = tested on: HepG2; test: Reduction in c-Myc protein expression in human HepG2 cells at 2 to 12 uM incubated for 2 days by Western blot method; type: functional, cell-based
# [49] = tested on: HepG2; test: Induction of cell cycle arrest in human HepG2 cells assessed as accumulation at G2/M phase at 4 uM incubated for 2 days by propidium iodide staining based flow cytometry method (reference value: 10.75%); type: functional
smiles,measurement,setting,value
O=C(Nc1ccc(OCCN2CCCC2)cc1)c1ccc2ccc3ccc(C(=O)Nc4ccc(OCCN5CCCC5)cc4)nc3c2n1,inhibition,[1],Dose-dependent effect
same,Activity,[2],19.4%
same,Activity,[3],6%
same,Activity,[4],Dose-dependent effect
same,inhibition,[5],Active
same,pIC50,[6],5.70
same,Activity,[7],5.4%
same,Activity,[8],14.4%
same,Activity,[9],Active
same,Activity,[10],73.9%
same,Activity,[11],5.3%
same,Activity,[12],55.76%
same,Activity,[13],15.13%
same,Activity,[14],78.4%
same,Activity,[15],19.9%
same,Activity,[16],10.7%
same,Activity,[17],46.6%
same,Activity,[18],Active
same,Activity,[19],28.2%
same,Activity,[20],1.1%
same,Activity,[21],Dose-dependent effect
same,Activity,[22],18.55%
same,pIC50,[23],5.68
same,inhibition,[24],Active
same,Activity,[25],5.2%
same,inhibition,[26],Dose-dependent effect
same,Activity,[27],65.1%
same,Activity,[28],Dose-dependent effect
same,Activity,[29],inactive
same,inhibition,[30],Active
same,inhibition,[31],Active
same,Activity,[32],64.97%
same,Activity,[33],20%
same,Activity,[34],9.5%
same,inhibition,[35],Dose-dependent effect
same,pIC50,[36],6.30
same,Activity,[37],Active
same,inhibition,[38],inactive
same,Activity,[39],10.8%
same,Activity,[40],25.69%
same,Activity,[41],Dose-dependent effect
O=C(CCN1CCCC1)Nc1cccc(NC(=O)c2ccc3ccc4ccc(C(=O)Nc5cccc(NC(=O)CCN6CCCC6)n5)nc4c3n2)n1,inhibition,[1],Dose-dependent effect
same,Activity,[2],4.9%
same,Activity,[3],5.2%
same,pIC50,[6],5.80
same,Activity,[7],7.5%
same,Activity,[42],26.82%
same,Activity,[43],38.57%
same,Activity,[8],31.6%
same,Activity,[9],Active
same,Activity,[10],39.5%
same,Activity,[11],5%
same,Activity,[14],84.2%
same,Activity,[44],42.26%
same,Activity,[16],18.7%
same,Activity,[17],39.6%
same,Activity,[18],Active
same,Activity,[19],33.7%
same,Activity,[20],10.2%
same,inhibition,[45],Active
same,Activity,[46],59.87%
same,pIC50,[23],6.08
same,inhibition,[24],Active
same,Activity,[25],9.3%
same,inhibition,[26],Dose-dependent effect
same,Activity,[27],81.7%
same,Activity,[47],19.17%
same,Activity,[29],inactive
same,inhibition,[30],Active
same,inhibition,[48],Active
same,Activity,[33],17.4%
same,Activity,[34],8.2%
same,inhibition,[35],Dose-dependent effect
same,pIC50,[36],5.90
same,Activity,[37],Active
same,inhibition,[38],inactive
same,Activity,[39],3.3%
same,Activity,[49],13.82%
same,Activity,[41],Dose-dependent effect
